From patent publication US20260000645A1, “USE OF EBSELEN OR ONE OF THE DERIVATIVES THEREOF TO TREAT MITOCHONDRIAL PATHOLOGIES OR DYSFUNCTIONS” (ASSOCIATION FRANCAISE CONTRE LES MYOPATHIES, priority 2022, published 2026)

How the values were obtained:
[1] = tested on: fibroblasts of TAZ patients; test: Mitochondrial ATP level in fibroblasts of TAZ patients (CellTiter-Glo); type: cell-based, human; details: EBS 12.15 nM for 96 hours
Description: The levels of mitochondrial ATP in the fibroblasts of TAZ patients were evaluated using a Promega CellTiter-Glo kit. The cells in 96 well plates (5000/well) were treated or not treated with 12.15 nM of EBS for 96 hours then were incubated in the presence of Antimycin A (100 μM), of Rotenone (0.5 μM) or oligomycin A (3 μM).

[2] = tested on: Cox2 protein in mutant yeast strain sym1; test: Accumulation of Cox2 protein in sym1; type: cell-based, Saccharomyces cerevisiae; details: EBS 1 μM, compared to non-treated cells
Description: Total protein extracts from the mutant yeast strain were analyzed by SDS-PAGE ([…] per well) using antibodies against the indicated proteins. The gels shown are representative of at least 3 experiments. Protein levels were quantified using the ImageJ software. The levels of Cox2 were normalized with respect to Ade13p and expressed with respect to the wild type (WT) strain.
(§1) The experiments described in example 2 were implemented on the mutant yeast strain sym1.
(§2) The data are the averages ±SEM of at least three independent experiments. The significance of the variations between samples and the controls were estimated using the multi-factorial Anova: Tukey test.

mutant yeast strain taz1 = test: Respiratory growth in liquid culture (bioscreen, OD600); type: cell-based, Saccharomyces cerevisiae; details: taz1, liquid respiratory medium
Description: In order to determine the optimum concentration of EBS leading to the suppression of a respiratory growth defect of the mutant yeast strain, cells undergoing exponential growth were inoculated in fresh Ethanol YPA non-fermentable media supplemented or not supplemented with increasing concentrations of EBS. The growth of cells in the liquid respiratory medium was monitored using the bioscreen system over a period of 80 h during which (OD600 nm) cell densities were sampled every 20 minutes.

[3] = tested on: fibroblasts of TAZ patients; test: Respiratory growth/proliferation of fibroblasts of TAZ patients (SRB, low glucose); type: cell-based, human
Description: EBS was tested for the effect thereof on the respiratory growth of fibroblasts of TAZ patients, as opposed to fibroblasts from eight different patients, carriers of mutations in the TAZ gene (suffering from Barth's syndrome).
The rate of proliferation was measured in a medium with a weak concentration of glucose (1 g/L; to force cells to use the OXPHOS system rather than glycolyse) in 384 well micro-titration plates (1200 cells/wells at T0) using the Sulforhodamine B (SRB) staining protocol at 24, 48, 72 or 96 hours after placing the cells with or without 12.15 nM of EBS.
The data are the average of 8 patients or 3 controls in triplicate, in 4 independent experiments.
The rate of proliferation was then measured under the same experimental conditions but with variable concentrations of ethaselen: The cells were analyzed 96 hours after treatment with increasing doses of ethaselen (from 150 pM to 26.1 μM). The bars represent the average of 4 replicates coming from 2 patients in 3 independent experiments.

mutant yeast strain sym1 = test: Cellular respiration (OROBOROS oxygraph) in sym1; type: cell-based, Saccharomyces cerevisiae; details: EBS 1 μM, compared to non-treated cells
Description: Respiratory intensity corresponds to the amount of oxygen consumed with respect to time and the number of cells. It reflects the mitochondrial oxidative metabolism of the cells. The consumption of oxygen was measured using the OROBOROS oxygraph system. The cells were cultivated over 7-8 generations at 28° C. for 24 to 48 h in an Ethanol YPA medium supplemented by DMSO or EBS (1 μM). 10^7 cells were introduced into the oxygraph. The consumption of O2 was recorded with or without CCCP (maximum rate of oxygen consumption). The rate of O2 consumption was calculated on the basis of the linear part of the O2 consumption.
as §1, §2

[4] = tested on: fibroblast lines of patients carrying mutations of the nuclear gene NDUFV1; test: Mitochondrial respiration of NDUFV1 patient fibroblasts (Seahorse XF96); type: cell-based, human; details: 48 h exposure
Description: EBS was also tested for the ability thereof to restore mitochondrial respiration of fibroblast lines of patients carrying mutations of the nuclear gene NDUFV1 of mitochondrial complex I. The human lines NDUFV1 mimicking the human illnesses related to a mitochondrial deficit of complex I (Leigh's syndrome) are carriers of genetic mutations affecting the gene NDUFV1. These cell lines were cultivated in a DMEM medium containing 1.0 g/L of glucose and 1 mM of sodium pyruvate and 50 μg/ml of uridine (Sigma Aldrich, Lyon, France).
The respiration was measured using a Seahorse XF96 extracellular flow metabolic analyzer in 96 well plates according to the manufacturer's protocol (Agilent Technologies). Deficient cells were exposed for 48 h to different concentrations with a dose response curve associating a range of concentrations from 25 nM to 10 μM. […]
The measurement of the oxygen consumption rate (OCR) was recorded under basal conditions to evaluate the mitochondrial respiratory activity and then the cells were treated sequentially with 4 μg/mL of oligomycin and 1.5 μM of carbonyl cyanide p-(trifluoromethoxy) phenylhydrazone (FCCP) (Sigma-Aldrich). The basal OCR, the respiration related to ATP, the maximum respiratory capacity and the respiration by proton leak were determined. […] Maximum respiratory capacity has been determined as the rate of respiration in the presence of uncoupling FCCP. […]

[5] = Weight of KO mice lacking the TAZ gene (mouse model of Barth syndrome); type: in vivo; details: 10 mg/kg force-fed twice a day from age 51 days, 1 month; vs solvent
Description: Mice lacking the TAZ gene (KO model of Barth syndrome) or wild type (WT) gene were force-fed twice a day with 10 mg/kg of Ebselen as of an age of 51 days. The weight was regularly monitored during 1 month of treatment.

[6] = 96 hours, vs negative control DMSO

O=c1c2ccccc2[se]n1-c1ccccc1 [ebselen, 2-phenyl-1,2-benzisoselenazol-3(2H)-one]
mitochondrial ATP production [1]: improves
level of Cox2 [2]: increased
active concentration range, lower limit (mutant yeast strain taz1): ≥ 1 nM
active concentration range, upper limit (mutant yeast strain taz1): ≤ 3 µM
optimum concentration (mutant yeast strain taz1): 1 µM
toxic concentration (mutant yeast strain taz1; 80 h): ≥ 27 µM
toxicity concentration ([3]; 96 hours, fibroblasts of TAZ patients): > 234.9 µM
concentration range improving respiratory growth/proliferation, lower limit [3, 6]: ≥ 1.35 nM
concentration range improving respiratory growth/proliferation, upper limit [3, 6]: ≤ 8.7 µM
respiratory growth of fibroblasts of TAZ patients ([3]; EBS 12.15 nM, glucose 1 g/L, 24, 48, 72, 96 hours): improves
time after which EBS is effective ([3]; EBS 12.15 nM, more pronounced at 48, 72 and 96 hours): 24 h
cell respiration (mutant yeast strain sym1): increased
toxic concentration [4]: > 10 µM
weight of KO mice [5]: seemed to take on more weight
